According to patent publication US12091399B2, “Phenyltetrazole derivatives as plasma kallikrein inhibitors” (Boehringer Ingelheim International GmbH, priority 2018, dated 2024):

Biological target: Human PKK (Homo sapiens (Human), UniProt P03952)
Assay: Inhibition of PKK using an endpoint assay (human PKK)
Format: biochemical
Conditions: 1 h at rt, 0.10 μM H-Pro-Phe-Arg-AMC
Experimental: The ability of compounds of formula (I) to inhibit plasma kallikrein (PKK), Factor XIIa (FXIIa), Factor XIa (FXIa), Factor Xa (FXa), Factor IIa (alpha-thrombin; FIIa), plasmin, trypsin, tissue kallikrein 1 (TK1), Factor Vila (FVIIa), or FVIIa complexed with Tissue Factor, phospholipids and CaCl2) (FVIIa/TF/PL/CaCl2) was determined using the following biochemical assays in assay buffer (100 mM Tris, 150 mM NaCL, adjusted to a pH of 7.8 with HCl, and containing 0.1% (w/v) BSA and 0.05% (v/v) Tween20) in the presence of 1% (v/v) DMSO:
Subsequently, PPACK II (Calbiochem) was added as a stop solution to achieve a final concentration of 1 μM and fluorescence was measured using an Envision Reader (PerkinElmer) with the wavelength excitation setting of 355 nm and the wavelength emission setting of 460 nm. The number of the compound corresponds to the number of the Example in the experimental section.

Chain of Human PKK (P03952 391-638): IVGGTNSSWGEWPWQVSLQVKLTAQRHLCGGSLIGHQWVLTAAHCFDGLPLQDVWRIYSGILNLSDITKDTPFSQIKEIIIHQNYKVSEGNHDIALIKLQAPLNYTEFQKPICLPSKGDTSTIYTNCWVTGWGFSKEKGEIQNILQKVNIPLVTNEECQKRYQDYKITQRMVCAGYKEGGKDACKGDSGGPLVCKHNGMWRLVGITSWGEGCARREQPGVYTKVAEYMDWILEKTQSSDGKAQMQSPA
Chain of Human PKK (P03952 20-390 partner): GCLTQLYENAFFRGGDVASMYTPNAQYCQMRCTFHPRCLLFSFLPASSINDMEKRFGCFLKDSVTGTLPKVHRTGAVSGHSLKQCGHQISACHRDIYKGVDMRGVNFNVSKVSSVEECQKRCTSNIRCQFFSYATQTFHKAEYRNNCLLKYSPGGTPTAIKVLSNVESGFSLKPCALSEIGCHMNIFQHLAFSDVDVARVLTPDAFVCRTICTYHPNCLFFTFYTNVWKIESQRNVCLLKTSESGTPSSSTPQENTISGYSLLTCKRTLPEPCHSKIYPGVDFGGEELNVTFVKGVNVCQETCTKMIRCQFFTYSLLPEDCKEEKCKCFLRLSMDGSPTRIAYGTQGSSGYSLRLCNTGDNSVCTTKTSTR

Structure (SMILES) | IC50 [nM]
Cc1nc(N2CC3CCC(C2)N3)ccc1Cn1cc(C(=O)NCc2cc(Cl)ccc2-n2cnnn2)cn1 [Example 90, N-{[5-chloro-2-(1H-1,2,3,4-tetrazol-1-yl)phenyl]methyl}-1-[(6-{3,8-diazabicyclo[3.2.1]octan-3-yl}-2-methylpyridin-3-yl)methyl]-1H-pyrazole-4-carboxamide] | 119
Cc1nc(N2CC3(CC3)C2)ncc1Cn1cc(C(=O)NCc2c(-n3cnnn3)ccc(Cl)c2F)c(C)n1 [Example 38] | 0.7
Cc1nc(N2CCC3(COC3)C2)ccc1Cn1cc(C(=O)NCc2cc(Cl)ccc2-n2cnnn2)cn1 [Example 61, N-{[5-chloro-2-(1H-1,2,3,4-tetrazol-1-yl)phenyl]methyl}-1-[(2-methyl-6-{2-oxa-6-azaspiro[3.4]octan-6-yl}pyridin-3-yl)methyl]-1H-pyrazole-4-carboxamide] | 12
Cc1nc(N2CC3CC3C2)ccc1Cn1cc(C(=O)NCc2c(-n3cnnn3)ccc(Cl)c2F)c(C)n1 (stereo not drawn) [Example 20] | 0.4
Cc1nc(N2CC3C(C2)C3(F)F)ncc1Cn1cc(C(=O)NCc2cc(Cl)ccc2-n2cnnn2)c(C)n1 (stereo not drawn) [Example 34] | 1
Cc1nc(N2CC3(CC3)C2)ccc1Cn1cc(C(=O)NCc2c(F)cccc2-n2cnnn2)cn1 [Example 94, 1-[(6-{5-azaspiro[2.3]hexan-5-yl}-2-methylpyridin-3-yl)methyl]-N-{[2-fluoro-6-(1H-1,2,3,4-tetrazol-1-yl)phenyl]methyl}-1H-pyrazole-4-carboxamide] | 4
Cc1nc(N2C[C@@H]3[C@@H](O)[C@@H]3C2)ccc1Cn1cc(C(=O)NCc2cc(Cl)ccc2-n2cnnn2)cn1 [Example 56] | 6
Cc1nc(N2C[C@@H]3[C@@H](C)[C@@H]3C2)ccc1Cn1cc(C(=O)NCc2cc(Cl)ccc2-n2cnnn2)cn1 [Example 86] | 7
Cc1nc(N2CC[C@@]3(N)C[C@H]3C2)ccc1Cn1cc(C(=O)NCc2cc(Cl)ccc2-n2cnnn2)cn1 [Example 89, 1-({6-[(1S,6S)-6-amino-3-azabicyclo[4.1.0]heptan-3-yl]-2-methylpyridin-3-yl}methyl)-N-{[5-chloro-2-(1H-1,2,3,4-tetrazol-1-yl)phenyl]methyl}-1H-pyrazole-4-carboxamide] | 61
CO[C@H]1[C@@H]2CC[C@H]1CN(c1ccc(Cn3cc(C(=O)NCc4cc(Cl)ccc4-n4cnnn4)cn3)c(C)n1)C2 [Example 80] | 22
COCc1nn(Cc2cnc(N3CC4(CC4)C3)nc2C)cc1C(=O)NCc1cc(Cl)ccc1-n1cnnn1 [Example 41] | 6
Cc1nc(N2CCC3(CNC3)C2)ccc1Cn1cc(C(=O)NCc2cc(Cl)ccc2-n2cnnn2)cn1 [Example 93, N-{[5-chloro-2-(1H-1,2,3,4-tetrazol-1-yl)phenyl]methyl}-1-[(6-{2,6-diazaspiro[3.4]octan-6-yl}-2-methylpyridin-3-yl)methyl]-1H-pyrazole-4-carboxamide] | 286
Cc1nc(N2CC3(CCOCC3)C2)ccc1Cn1cc(C(=O)NCc2cc(Cl)ccc2-n2cnnn2)cn1 [Example 78, N-{[5-chloro-2-(1H-1,2,3,4-tetrazol-1-yl)phenyl]methyl}-1-[(2-methyl-6-{7-oxa-2-azaspiro[3.5]nonan-2-yl}pyridin-3-yl)methyl]-1H-pyrazole-4-carboxamide] | 19
O=C(NCc1cc(Cl)ccc1-n1cnnn1)c1cnn(Cc2cnc(N3CC4C(C3)C4(F)F)c(Br)c2)c1 (stereo not drawn) [Example 51] | 2
COCc1nn(Cc2ccc(N3CC4(CC4)C3)nc2C)cc1C(=O)NCc1cc(Cl)ccc1-n1cnnn1 [Example 25] | 1
Cc1nc(N2CC3(CC3)C2)ncc1Cn1cc(C(=O)NCc2c(-n3cnnn3)ccc(Cl)c2F)cn1 [Example 40] | 0.5
Cc1nc(N2CC3C(C2)C3(F)F)ccc1Cn1cc(C(=O)NCc2c(-n3cnnn3)ccc(Cl)c2F)c(C)n1 (stereo not drawn) [Example 17] | 0.4

Structure (SMILES) | IC50 [nM]
COCc1nn(Cc2ccc(N3CC4C(C3)C4(F)F)nc2C)cc1C(=O)NCc1c(-n2cnnn2)ccc(Cl)c1F (stereo not drawn) [Example 11] | 0.6
Cc1nc(N2CC3(CC3)C2)ccc1Cn1cc(C(=O)NCc2c(-n3cnnn3)ccc(Cl)c2F)cn1 [Example 53] | 0.2
Cc1nc(N2CC3CC3C2)ncc1Cn1cc(C(=O)NCc2c(-n3cnnn3)ccc(Cl)c2F)c(C)n1 (stereo not drawn) [Example 30] | 0.8
Cc1nc(N2CC3CC3C2)ccc1Cn1cc(C(=O)NCc2c(-n3cnnn3)ccc(Cl)c2F)c(C(F)F)n1 (stereo not drawn) [Example 10] | 0.5
COc1nn(Cc2ccc(N3CC4CC4C3)nc2C)cc1C(=O)NCc1c(-n2cnnn2)ccc(Cl)c1F (stereo not drawn) [Example 22] | 1
Cc1nc(N2CC3(CC3)C2)ccc1Cn1cc(C(=O)NCc2c(-n3cnnn3)ccc(Cl)c2F)c(C)n1 [Example 28] | 14
Cc1nc(N2CC3(CC3)C2)ncc1Cn1cc(C(=O)NCc2cc(Cl)ccc2-n2cnnn2)cn1 [Example 39] | 3
Cc1nc(N2C[C@@H]3CNC(=O)[C@@H]3C2)ccc1Cn1cc(C(=O)NCc2cc(Cl)ccc2-n2cnnn2)cn1 [Example 62, 1-({6-[(3aS,6aS)-4-oxo-octahydropyrrolo[3,4-c]pyrrol-2-yl]-2-methylpyridin-3-yl}methyl)-N-{[5-chloro-2-(1H-1,2,3,4-tetrazol-1-yl)phenyl]methyl}-1H-pyrazole-4-carboxamide] | 3
Cc1nc(N2CC3(CC3)C2)ccc1Cn1cc(C(=O)NCc2cc(Cl)ccc2-n2cnnn2)c(C)n1 [Example 29] | 2
Cc1nc(N2CC3C(C2)C3(F)F)ncc1Cn1cc(C(=O)NCc2cc(Cl)ccc2-n2cnnn2)c2cncnc21 (stereo not drawn) [Example 24] | 2
Cc1nc(N2C[C@@H]3CCN[C@@H]3C2)ccc1Cn1cc(C(=O)NCc2cc(Cl)ccc2-n2cnnn2)cn1 [Example 92, 1-({6-[(3aS,6aS)-octahydropyrrolo[3,4-b]pyrrol-5-yl]-2-methylpyridin-3-yl}methyl)-N-{[5-chloro-2-(1H-1,2,3,4-tetrazol-1-yl)phenyl]methyl}-1H-pyrazole-4-carboxamide] | 155
Cc1nc(N2CCCC3(CC3)C2)ccc1Cn1cc(C(=O)NCc2cc(Cl)ccc2-n2cnnn2)cn1 [Example 72, 1-[(6-{5-azaspiro[2.5]octan-5-yl}-2-methylpyridin-3-yl)methyl]-N-{[5-chloro-2-(1H-1,2,3,4-tetrazol-1-yl)phenyl]methyl}-1H-pyrazole-4-carboxamide] | 74
Cc1nc(N2CCC3(C2)CC3(F)F)ccc1Cn1cc(C(=O)NCc2cc(Cl)ccc2-n2cnnn2)cn1 (stereo not drawn) [Example 66, N-{[5-chloro-2-(1H-1,2,3,4-tetrazol-1-yl)phenyl]methyl}-1-[(6-{1,1-difluoro-5-azaspiro[2.4]heptan-5-yl}-2-methylpyridin-3-yl)methyl]-1H-pyrazole-4-carboxamide] | 9
COCc1nn(Cc2cnc(N3CC4CC4C3)nc2C)cc1C(=O)NCc1cc(Cl)ccc1-n1cnnn1 (stereo not drawn) [Example 36] | 5
Cc1nc(N2CC3CC3C2)ccc1Cn1cc(C(=O)NCc2c(-n3cnnn3)ccc(Cl)c2F)c(-c2cnn(C)c2)n1 (stereo not drawn) [Example 43] | 0.4
Cc1nc(N2CC3C(C2)C3(F)F)ncc1Cn1cc(C(=O)NCc2c(-n3cnnn3)ccc(Cl)c2F)c(C)n1 (stereo not drawn) [Example 33] | 0.8
